Laboratory results: patent US6608086B2, “Dihydropyridines and new uses thereof” (Synaptic Pharmaceutical Corporation, priority 1993, dated 2003)
Structures can show the parent of a compound that is named as a salt.

Legend:
[1] = biological target: T1, α1A Human Adrenergic Receptor (Homo sapiens, UniProt P25100); assay: Radioligand binding, [3H]prazosin, cloned human α1A adrenergic receptor; conditions: [3H]prazosin; for Ki: read-out: pKi alpha-1 1a (converted)
T1 construct: The entire coding region of α1A (1719 bp); expressed in transfected cells
T1 sequence (P25100 1-572): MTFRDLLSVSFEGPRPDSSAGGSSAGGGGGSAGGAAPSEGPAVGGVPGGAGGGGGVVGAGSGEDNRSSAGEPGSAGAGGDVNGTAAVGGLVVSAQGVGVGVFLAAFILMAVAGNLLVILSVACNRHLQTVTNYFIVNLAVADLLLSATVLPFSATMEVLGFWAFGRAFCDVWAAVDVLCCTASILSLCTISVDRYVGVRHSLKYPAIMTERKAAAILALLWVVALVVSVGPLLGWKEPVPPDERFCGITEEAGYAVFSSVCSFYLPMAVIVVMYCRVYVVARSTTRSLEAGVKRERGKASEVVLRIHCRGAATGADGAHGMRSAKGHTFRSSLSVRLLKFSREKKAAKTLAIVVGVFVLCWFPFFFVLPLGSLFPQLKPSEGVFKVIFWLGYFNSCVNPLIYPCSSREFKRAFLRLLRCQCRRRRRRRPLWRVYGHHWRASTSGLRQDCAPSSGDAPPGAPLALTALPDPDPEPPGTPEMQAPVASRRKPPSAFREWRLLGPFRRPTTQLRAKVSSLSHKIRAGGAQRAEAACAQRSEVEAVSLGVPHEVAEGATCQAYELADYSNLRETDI
How it was run: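 Binding of [3H]prazosin (0.5 nM) was measured at 37° C over 20 min in pH 7.5 Tris/MgCl2/ascorbate buffer, using membrane preparations of LM(tk−) cells expressing cloned human α1A receptor. Filtration through GF/B filters stopped the reaction. 10 μM phentolamine gave nonspecific binding.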

α2B receptor = biological target: T2, α2B receptor (Homo sapiens, UniProt P18089); assay: Competition binding, [3H]rauwolscine, human α2B receptor; conditions: [3H]rauwolscine; for Ki: read-out: pKi alpha-2 2b (converted)
T2 construct: host or cells: LM(tk-) cells, line L-NGC-α2B
T2 sequence (P18089 1-450): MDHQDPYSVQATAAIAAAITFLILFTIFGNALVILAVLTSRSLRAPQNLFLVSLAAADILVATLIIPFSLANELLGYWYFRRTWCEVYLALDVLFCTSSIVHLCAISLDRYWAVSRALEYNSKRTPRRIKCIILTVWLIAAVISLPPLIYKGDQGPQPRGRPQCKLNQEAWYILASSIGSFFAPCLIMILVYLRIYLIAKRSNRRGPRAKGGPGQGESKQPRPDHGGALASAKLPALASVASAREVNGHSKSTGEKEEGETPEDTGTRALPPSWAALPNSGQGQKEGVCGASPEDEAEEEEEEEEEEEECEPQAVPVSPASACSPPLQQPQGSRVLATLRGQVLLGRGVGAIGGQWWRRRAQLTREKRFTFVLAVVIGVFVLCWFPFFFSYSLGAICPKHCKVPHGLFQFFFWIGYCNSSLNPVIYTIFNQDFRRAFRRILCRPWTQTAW
How it was run: (§1)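 Lysates of LM(tk−) cells stably expressing human α2A, α2B or α2C receptors in 25 mM glycylglycine pH 7.6. Equilibrium competition against 0.5 nM [3H]rauwolscine, with 10 μM phentolamine defining nonspecific binding. Bound ligand separated by GF/B filtration.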

α2C receptor = biological target: T3, α2C receptor (Homo sapiens, UniProt P18825); assay: Competition binding, [3H]rauwolscine, human α2C receptor; conditions: [3H]rauwolscine; for Ki: read-out: pKi alpha-2 2c (converted)
T3 construct: host or cells: LM(tk-) cells, line L-α2C
T3 sequence (P18825 1-462): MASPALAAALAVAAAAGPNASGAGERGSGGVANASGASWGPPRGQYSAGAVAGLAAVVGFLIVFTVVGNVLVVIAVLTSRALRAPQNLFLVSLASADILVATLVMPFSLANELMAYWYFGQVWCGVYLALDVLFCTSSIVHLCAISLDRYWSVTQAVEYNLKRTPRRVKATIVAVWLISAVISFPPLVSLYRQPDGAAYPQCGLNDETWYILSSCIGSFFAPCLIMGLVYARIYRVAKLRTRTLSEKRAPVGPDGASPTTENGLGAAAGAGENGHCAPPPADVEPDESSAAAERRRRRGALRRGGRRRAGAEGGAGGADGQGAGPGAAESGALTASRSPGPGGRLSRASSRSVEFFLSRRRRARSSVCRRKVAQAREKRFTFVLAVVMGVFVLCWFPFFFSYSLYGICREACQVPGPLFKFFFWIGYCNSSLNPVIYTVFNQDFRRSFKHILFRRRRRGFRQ
How it was run: as §1

[2] = cloned human receptor in LM(tk-) cell membranes, SEM and n in lines below
[3] = LM(tk-) cell line L-NGC-α2B, SEM and n in lines below
[4] = LM(tk-) cell line L-α2C, SEM and n in lines below
[5] = cloned human α1A receptor, LM(tk−) cell membranes
[6] = human α2B receptor, LM(tk−) cells
[7] = human α2C receptor, LM(tk−) cells

With `COC(=O)C1=C(C)NC(C)=C(C(=O)NCCCCN2CCC(c3ccccc3)(c3ccccc3)CC2)C1c1ccc([N+](=O)[O-])cc1.Cl.O` (stereo not drawn) [Example 53, 1,4-Dihydro-3-methoxycarbonyl-2,6-dimethyl-4-(4-nitrophenyl)-5-{N-[4-(4,4-diphenylpiperidin-1-yl)butyl]}carboxamidopyridine hydrochloride hydrate] the “pKi alpha-1 1a” value [1, 2] was 6.49, the “pKi alpha-2 2b” value (α2B receptor; [3]) was 6.34 and the “pKi alpha-2 2c” value (α2C receptor; [4]) was 6.67.

`COC(=O)C1=C(C)NC(C)=C(C(=O)NCCCN2CCc3cc(OC)c(OC)cc3C2)C1c1ccc([N+](=O)[O-])cc1` (stereo not drawn) [Example 57, 1,4-Dihydro-3-methoxycarbonyl-5-{N-[3-(1,2,3,4-tetrahydro-6,7-dimethoxyisoquinolin-2-yl)propyl]}carboxamido-2,6-dimethyl-4-(4-nitrophenyl)pyridine hydrochloride hydrate] gave a Ki [1, 2] of 1620 nM, a Ki (α2B receptor; [3]) of 1860 nM and a Ki (α2C receptor; [4]) of 158 nM.

With `COc1cc2c(cc1OC)CN(CCCNC(=O)C1=C(C)NC(C)=C(C(N)=O)C1c1ccc([N+](=O)[O-])cc1)CC2` (stereo not drawn) [Example 58, 5-Carboxamido-1,4-dihydro-3-{N-[3-(1,2,3,4-tetrahydro-6,7-dimethoxyisoquinolin-2-yl)propyl]}carboxamido-2,6-dimethyl-4-(4-nitrophenyl)pyridine hydrochloride] the Ki [1, 2] was 3020 nM, the Ki (α2B receptor; [3]) was 1450 nM and the Ki (α2C receptor; [4]) was 50.1 nM.

`CC1=C(C(N)=O)C(c2ccc([N+](=O)[O-])cc2)C(C(=O)NCCCN2CCC(c3ccccc3)CC2)=C(C)N1` (stereo not drawn) [Example 60, 5-Carboxamido-1,4-dihydro-2,6-dimethyl-4-(4-nitrophenyl)-3-{N-[3-(4-phenylpiperidin-1-yl)propyl]}carboxamidopyridine] showed a Ki [1, 2] of 200 nM, a Ki (α2B receptor; [3]) of 69.2 nM and a Ki (α2C receptor; [4]) of 67.6 nM.

Compound `CC1=C(C(N)=O)C(c2cccc([N+](=O)[O-])c2)C(C(=O)NCCCN2CCC(c3ccccc3)CC2)=C(C)N1` (stereo not drawn) [Example 62] has a Ki [1, 2] of 339 nM, a Ki (α2B receptor; [3]) of 57.5 nM and a Ki (α2C receptor; [4]) of 49 nM.

Work on `CC1=C(C(=O)NCCCN2CCC(c3ccccc3)CC2)C(c2ccc([N+](=O)[O-])cc2)c2c([nH]c(=O)[nH]c2=O)N1` (stereo not drawn) [Example 63, 1,4-Dihydro-6-methyl-4-(4-nitrophenyl)-5-{N-[3-(4-phenylpiperidin-1-yl)propyl]}carboxamido-[2,3, d]uracilylpyridine] yielded a Ki [1, 2] of 44.7 nM, a Ki (α2B receptor; [3]) of 132 nM and a Ki (α2C receptor; [4]) of 170 nM.

`COC(=O)C1=C(C)NC(c2ccoc2)=C(C(=O)NCCCN2CCC(c3ccccc3)CC2)C1c1ccc([N+](=O)[O-])cc1` (stereo not drawn) [Example 65, 2-(Furan-3-yl)-1,4-dihydro-5-methoxycarbonyl-6-methyl-4-(4-nitrophenyl)-5-{N-[3-(4-phenylpiperidin-1-yl)propyl]}carboxamidopyridine hydrochloride hydrate] gave a Ki [1, 2] of 129 nM, a Ki (α2B receptor; [3]) of 97.7 nM and a Ki (α2C receptor; [4]) of 83.2 nM.

`CC1=C(C(N)=O)C(c2ccc([N+](=O)[O-])cc2)C(C(=O)NC2CCN(Cc3ccccc3)CC2)=C(c2ccoc2)N1.Cl.O` (stereo not drawn) [Example 66] was tested, and the “pKi alpha-1 1a” value [1, 2] was 5.45, the “pKi alpha-2 2b” value (α2B receptor; [3]) was 5.35 and the “pKi alpha-2 2c” value (α2C receptor; [4]) was 6.24.

With `COc1cc2c(c(OC)c1)CCN(CCCNC(=O)C1=C(c3ccoc3)NC(C)=C(C(N)=O)C1c1ccc([N+](=O)[O-])cc1)C2.Cl.O` (stereo not drawn) [Example 67] the “pKi alpha-1 1a” value [1, 2] was 5.96, the “pKi alpha-2 2b” value (α2B receptor; [3]) was 5.79 and the “pKi alpha-2 2c” value (α2C receptor; [4]) was 7.00.

Compound `CCC1=C(C(=O)NCCCN2CCC(c3ccccc3)CC2)C(c2ccc([N+](=O)[O-])cc2)C(C(=O)OC)=C(C)N1` (stereo not drawn) [Example 74, 2-Ethyl-1,4-dihydro-5-methoxycarbonyl-6-methyl-4-(4-nitro)phenyl-3-(N-(3-(4-phenylpiperidin-1-yl)propyl)) carboxamidopyridine hydrochloride hydrate] has a Ki [1, 2] of 58.9 nM, a Ki (α2B receptor; [3]) of 89.1 nM and a Ki (α2C receptor; [4]) of 23.4 nM.

`CCC1=C(C(=O)NC2CCN(Cc3ccccc3)CC2)C(c2ccc([N+](=O)[O-])cc2)C(C(=O)OC)=C(C)N1` (stereo not drawn) [Example 75, 2-Ethyl-1,4-dihydro-5-methoxycarbonyl-6-methyl-4-(4-nitro)phenyl-3-(N-(N-phenylmethyl)piperidin-4-yl)carboxamidopyridine hydrochloride] was tested, and the Ki [1, 2] was 4370 nM, the Ki (α2B receptor; [3]) was 3090 nM and the Ki (α2C receptor; [4]) was 1230 nM.

`CCC1=C(C(=O)NCCCN2CCc3cc(OC)c(OC)cc3C2)C(c2ccc([N+](=O)[O-])cc2)C(C(N)=O)=C(C)N1.Cl.O` (stereo not drawn) [Example 76, 5-Carboxamido-2-ethyl-1,4-dihydro-3-(N-(3-(1,2,3,4-tetrahydro-6,7-dimethoxyisoquinolin-2-yl)propyl)) carboxamido-6-methyl-4-(4-nitro)phenylpyridine hydrochloride hydrate] was tested, and the “pKi alpha-1 1a” value [1, 2] was 5.89, the “pKi alpha-2 2b” value (α2B receptor; [3]) was 5.64 and the “pKi alpha-2 2c” value (α2C receptor; [4]) was 7.70.

In the case of `CCC1=C(C(=O)NCCCCN2CCC(c3ccccc3)CC2)C(c2ccc([N+](=O)[O-])cc2)C(C(N)=O)=C(C)N1.Cl.O` (stereo not drawn) [Example 77, 5-Carboxamido-2-ethyl-1,4-dihydro-6-methyl-4-(4-nitro)phenyl-3-(N-(4-(4-phenylpiperidin-1-yl)butyl))carboxamidopyridine hydrochloride hydrate], the “pKi alpha-1 1a” value [1, 2] is reported as 6.83, the “pKi alpha-2 2b” value (α2B receptor; [3]) is reported as 7.08 and the “pKi alpha-2 2c” value (α2C receptor; [4]) is reported as 7.42.

In the case of `COC(=O)C1=C(C)NC(c2ccccc2)=C(C(=O)NCCCN2CCC(c3ccccc3)CC2)C1c1ccc([N+](=O)[O-])cc1.Cl` (stereo not drawn) [Example 79, 1,4-Dihydro-5-methoxycarbonyl-6-methyl-4-(4-nitro)phenyl-2-phenyl-3-(N-(3-(4-phenylpiperidin-1-yl)propyl)) carboxamidopyridine hydrochloride], the “pKi alpha-1 1a” value [1, 2] is reported as 6.99, the “pKi alpha-2 2b” value (α2B receptor; [3]) is reported as 7.28 and the “pKi alpha-2 2c” value (α2C receptor; [4]) is reported as 7.21.

In the case of `CCOC(=O)C1=C(CNCCCN2CCC(c3ccccc3)(c3ccccc3)CC2)NC(C)=C(C(=O)OC)C1c1ccc([N+](=O)[O-])cc1.Cl.O` (stereo not drawn) [Example 90, 3-Ethoxycarbonyl-1,4-dihydro-5-methoxycarbonyl-6-methyl-4-(4-nitro)phenyl-2-(N-(3-(4,4,-diphenylpiperidin-1-yl)propyl)amino)methylpyridine, hydrochloride hydrate], the “pKi alpha-1 1a” value [1, 5] is reported as 6.52, the “pKi alpha-2 2b” value (α2B receptor; [6]) is reported as 6.04 and the “pKi alpha-2 2c” value (α2C receptor; [7]) is reported as 6.79.

In the case of `COC(=O)C1=C(C)NC2=C(C(=O)N(CCCN3CCC(c4ccccc4)(c4ccccc4)CC3)C2)C1c1ccc([N+](=O)[O-])cc1.Cl.O` (stereo not drawn) [Example 91, 1,4,7,7-Tetrahydro-3-methoxycarbonyl-6-methyl-5-oxo-4-(4-nitrophenyl)-6-(3-(4,4-diphenylpiperidin-1-yl)) propylpyrrolo[3,4-b]pyridine, hydrochloride hydrate], the “pKi alpha-1 1a” value [1, 5] is reported as 6.29, the “pKi alpha-2 2b” value (α2B receptor; [6]) is reported as 6.00 and the “pKi alpha-2 2c” value (α2C receptor; [7]) is reported as 6.31.
